One experiment relates to Sprague-Dawley rats. The experiment in a line: Chung spinal nerve ligation model of allodynia. The note with it: male rats, 10 mg/kg i.p., n=10. The experiment is classed as in vivo. The procedure:
Methods for Chung Spinal Nerve Ligation
The Chung spinal nerve ligation model was implemented by Algos Therapeutics. Male Sprague-Dawley rats (Hsd:Sprague-Dawley®™SD®™, Harlan, Indianapolis, Indiana, U.S.A.) weighing 222 ± 1 g were housed three per cage and given ad libitum access to food and water. Animal holding rooms operated on a 12:12h light/dark schedule for the entire duration of the study. The animal colony was maintained at 21 °C and 60% humidity. All experiments were conducted in accordance with the International Association for the Study of Pain guidelines and were approved by the University of Minnesota Animal Care and Use Committee.
Allodynia was induced via the Chung spinal nerve ligation (SNL) method116 in which the animals were anesthetized with isoflurane, the left L5 transverse process was removed, then the L5 and L6 spinal nerves were tightly ligated with 6-0 silk suture. Finally, the wound was closed with internal sutures and external staples. Allodynia was assessed using 8 Semmes-Weinstein filaments (Stoelting, Wood Dale, IL, USA) with varying stiffness (0.4, 0.7, 1.2, 2.0, 3.6, 5.5, 8.5, and 15 g) following the up-down method117 first published by Chaplan et al. in 1994. Baseline measurements were taken two weeks following SNL and prior to compound administration. Measurements were also taken 30, 60, 120 and 240 minutes post intraperitoneal compound injection. […]

The subject of a further experiment is C57BL/6J mice. The experiment in a line: Hot water tail immersion test, compound alone (intrinsic antinociception). It counts as in vivo. To be noted: for effect on tail flick latency vs vehicle: n = 8 per group. An excerpt:
After evaluating EU93-108 in vitro, we next evaluated a panel of GluN2B inhibitors for their ability to produce an antinociceptive effect using a classical model of pain perception, determination of tail flick latency for mice when their tails are placed in hot water (Figures 4 and 5). The hot water tail immersion test is a well-validated method of assessing reflexive (i.e., spinal) pain-like response in rodents.[80]−[83] We interpret a drug-induced increase in tail flick latency as analgesia.
The inhibitors were injected i.p. 30 min prior to a hot water tail immersion test. Four treatment groups and one control group were used (n = 8 per group) where the control group received vehicle (10% DMSO, 20% PEG, 2% DMA in water) and groups 1 through 4 were randomly assigned one dose of the appropriate compound.
All animal studies performed at Emory have been approved by the Institutional Animal Care and Use Committee at Emory University. Male and female C57BL/6J mice weighing between 20 and 30 g were housed five per cage and given ad libitum access to food and water. The mice were 8–10 weeks of age at the time of experimentation. Animal holding rooms operated on a 12 h dark/light cycle with the dark cycle from 7:00 pm to 7:00 am. Mice were allowed to acclimate in cages for one week after arrival. The mice were handled regularly and habituated to scruffing and cloth restraint for 3–5 days prior to experimentation.
Mouse weights were recorded on the day of each experiment. Mice were given the appropriate treatment(s) 30 min prior to testing. All injection volumes were 10 mL/kg (e.g., 350 μL for a 35 g mouse). For the tail immersion experiments, each mouse was restrained with a Wypall cloth, leaving the tail exposed. The distal two-thirds of the tail was lowered into a sous vide water bath set to 48 °C, and a stopwatch with a resolution of 0.01 s was used to record the time elapsed between immersion and tail flick. Three recordings were taken for each mouse, and each data point is expressed as the mean of the three recordings. A cut-off time of 25 s was implemented to prevent tissue damage or scarring. For each experiment, the identities of the doses were coded by an independent researcher to ensure blinding. The identities were not decoded until the data were analyzed.
Prism 9.3.1 software (GraphPad, San Diego, CA) was used for all data analysis and visualization. Data for intrinsic antinociception was analyzed using one-way ANOVA and Dunnett’s post hoc test for multiple comparisons where each group was compared to vehicle. Data for acute morphine potentiation experiments were analyzed using one-way ANOVA and Tukey’s post hoc test for multiple comparisons was also used, where each group mean was compared to the mean of every other group. Data for tolerance experiments were analyzed using repeated measures two-way ANOVA and Bonferroni post hoc analysis. Data are presented as mean ± SEM and p < 0.05 constitutes significance.

[1] abbreviates: male mice, i.p. 30 min prior to test.

Each structure is given as a SMILES string.

In the case of `CS(=O)(=O)Nc1ccc(OC[C@@H](O)CN2CCN(c3ccc(F)c(F)c3)CC2)cc1` [EU93-108, (S)-N-(4-(3-(4-(3,4-Difluorophenyl)piperazin-1-yl)-2-hydroxypropoxy)phenyl)methanesulfonamide], the “effect on allodynia (von Frey threshold)” value in the experiment on Sprague-Dawley rats is given as “efficacious”. For the same compound, in the experiment on C57BL/6J mice (Mus musculus, ip, male mice, i.p., fitted dose–response curve, estimated, read-out: ED50 (tail flick latency), EU93-108 alone), the median effective dose (ED50) is 9.7 mg/kg. For the same compound, in the experiment on C57BL/6J mice (female mice, i.p.), the “dose at which significant increase in latency was achieved” value came out at 60 mg/kg. In addition, the “effect on tail flick latency vs vehicle” value in the experiment with C57BL/6J mice (female mice, i.p. 30 min prior to test) is “increased latency, but only at 60 mg/kg”; with C57BL/6J mice (setting [1]) it was “significant increases in latency at the two highest doses tested (30 and 60 mg/kg)”. Further, the mean latency increase in the experiment with C57BL/6J mice (setting [1]) turned out to be 16 s. Moreover, the “dose at which significant latency increases were achieved” value in the experiment on C57BL/6J mice (male mice, i.p., lowest significant dose) is listed as 30 mg/kg.

The values above are taken from PMC9983021, “Novel GluN2B-Selective NMDA Receptor Negative Allosteric Modulator Possesses Intrinsic Analgesic Properties and Enhances Analgesia of Morphine in a Rodent Tail Flick Pain Model” (ACS Chemical Neuroscience, 2023).
